The values that follow come from patent publication US7659297B2, “Tetrahydronaphthalene derivatives, process for their production and their use as anti-inflammatory agents” (Bayer Schering Pharma, AG, priority 2003, dated 2010).

Each structure is given as a SMILES string.

Experiment [1] deals with T1, progesterone receptors (PR) (Homo sapiens, UniProt P06401).
T1 construct: made in house
T1 sequence (P06401 1-933): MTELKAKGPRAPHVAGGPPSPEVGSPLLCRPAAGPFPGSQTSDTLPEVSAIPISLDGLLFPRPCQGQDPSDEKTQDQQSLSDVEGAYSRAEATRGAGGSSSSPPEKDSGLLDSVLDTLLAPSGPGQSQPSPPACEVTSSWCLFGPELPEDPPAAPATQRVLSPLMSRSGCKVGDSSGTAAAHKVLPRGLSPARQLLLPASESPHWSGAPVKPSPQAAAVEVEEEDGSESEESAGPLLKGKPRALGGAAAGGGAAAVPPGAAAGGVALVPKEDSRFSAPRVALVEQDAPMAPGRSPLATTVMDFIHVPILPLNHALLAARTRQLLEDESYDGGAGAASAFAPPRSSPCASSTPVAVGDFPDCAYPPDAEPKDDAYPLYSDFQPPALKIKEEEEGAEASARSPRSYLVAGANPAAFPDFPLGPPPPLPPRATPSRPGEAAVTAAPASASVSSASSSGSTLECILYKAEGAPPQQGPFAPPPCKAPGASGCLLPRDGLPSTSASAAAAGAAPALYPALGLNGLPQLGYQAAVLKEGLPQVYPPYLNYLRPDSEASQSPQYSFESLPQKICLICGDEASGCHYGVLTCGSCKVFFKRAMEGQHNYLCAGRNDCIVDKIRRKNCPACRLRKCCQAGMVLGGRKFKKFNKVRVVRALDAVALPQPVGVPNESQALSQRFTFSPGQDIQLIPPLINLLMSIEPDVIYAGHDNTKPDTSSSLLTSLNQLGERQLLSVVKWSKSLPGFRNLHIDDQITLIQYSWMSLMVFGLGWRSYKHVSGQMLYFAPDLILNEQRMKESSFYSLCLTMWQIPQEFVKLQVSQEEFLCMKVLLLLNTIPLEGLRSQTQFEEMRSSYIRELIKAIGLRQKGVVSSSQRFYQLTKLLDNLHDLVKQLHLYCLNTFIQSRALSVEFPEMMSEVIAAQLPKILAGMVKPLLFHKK
Put plainly: Binding to other steroid hormone receptors with recombinantly produced receptors: progesterone receptor. The source says:
(§1) The binding of substances to the glucocorticoid receptor (GR) and other steroid hormone-receptors (mineral corticoid receptors (MR), progesterone receptors (PR) and androgen receptors (AR)) is examined with the aid of recombinantly produced receptors. Cytosol preparations of Sf9 cells, which had been infected with recombinant baculoviruses that code for the GR, are used for the binding tests. In comparison to the reference substance [^3H]-dexamethasone, the substances show a high affinity to the GR.

Experiment [2] addresses T2, glucocorticoid receptor (GR) (Homo sapiens, UniProt P04150).
T2 construct: made in house; host or cells: Sf9 cells infected with recombinant baculovirus (cytosol preparation)
T2 sequence (P04150 1-777): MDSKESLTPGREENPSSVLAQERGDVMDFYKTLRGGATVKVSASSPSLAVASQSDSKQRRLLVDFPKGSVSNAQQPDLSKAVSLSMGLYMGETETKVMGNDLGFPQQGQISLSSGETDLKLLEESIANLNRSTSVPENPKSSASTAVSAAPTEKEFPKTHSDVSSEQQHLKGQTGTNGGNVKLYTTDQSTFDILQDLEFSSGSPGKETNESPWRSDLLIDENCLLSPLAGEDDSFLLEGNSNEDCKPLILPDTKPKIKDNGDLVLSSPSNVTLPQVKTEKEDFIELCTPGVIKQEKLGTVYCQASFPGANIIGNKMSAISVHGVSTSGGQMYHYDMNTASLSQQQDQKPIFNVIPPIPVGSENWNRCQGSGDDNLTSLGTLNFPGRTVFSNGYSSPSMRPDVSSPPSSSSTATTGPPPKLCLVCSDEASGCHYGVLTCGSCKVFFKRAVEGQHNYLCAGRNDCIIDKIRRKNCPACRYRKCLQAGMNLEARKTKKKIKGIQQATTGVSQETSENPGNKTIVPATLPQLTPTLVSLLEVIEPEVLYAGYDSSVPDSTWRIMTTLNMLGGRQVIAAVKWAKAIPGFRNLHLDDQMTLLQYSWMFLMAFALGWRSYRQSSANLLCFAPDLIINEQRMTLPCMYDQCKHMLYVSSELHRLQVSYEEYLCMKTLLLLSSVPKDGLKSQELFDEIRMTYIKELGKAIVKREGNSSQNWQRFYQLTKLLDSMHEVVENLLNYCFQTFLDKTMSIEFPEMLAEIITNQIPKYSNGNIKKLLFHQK
Put plainly: Binding to the glucocorticoid receptor, recombinantly produced receptor, cytosol preparations of Sf9 cells, reference [3H]-dexamethasone. The conditions noted are these: recombinant GR.
Text: as §1

Experiment [3] has as its system secretion of the cytokine IL-8, triggered by lipopolysaccharide (LPS), in the human monocyte cell line THP-1. Put plainly: Inhibition of LPS-triggered secretion of the cytokine IL-8 in THP-1 cells (ELISA of supernatant). The experiment is classed as cell-based. The conditions noted are these: LPS-triggered IL-8 secretion. On the procedure:
The concentration of the cytokines was determined in the supernatant by means of commercially available ELISA kits.

One may read the IC50 as the concentration that inhibits the measured activity by half. For the compound `Cc1ncc2c(NC3c4cc(C)c(F)c(O)c4C(C)(C)CC3(O)C(F)(F)F)ccc(F)c2n1` (racemic) [Example 285, 6-Fluoro-1-[(8-fluoro-2-methylquinazolin-5-yl)amino]-4,4,7-trimethyl-2-(trifluoromethyl)-1,2,3,4-tetrahydronaphthalene-2,5-diol], the IC50 is more than 1000 nM in experiment [1]; 86 nM in experiment [2]; 40 nM in experiment [3] (Homo sapiens, read-out: inhibition IC50(IL8)). Also, in experiment [3], the “eff (IL8 inhibition)” value came out at 79%.
